Test results: patent US10123996B2, “Macrocyclic lactone compounds and methods for their use” (Elixir Medical Corporation, priority 2006, dated 2018)

What was measured:
Assay type in all cases: cell-based
[1] = system: IL-10 released by activated macrophages; experiment: cytokine inhibition in LPS-activated macrophages, ELISA: IL-10; settings: 10 nM
Description: (§1) In cell culture studies, macrophages were activated to secrete cytokines such as 11-6, MMP-9, MCP-1 and IL-10 by treating the cells to E Coli lippopolysaccharide (LPS). Inhibition of these cytokines upon treatment of the activated macrophages with Compound AR and rapamycin with 10 nM concentration was tested using ELISA assay. The inhibition of pro-inflammatory and cell proliferation and migration inducing cytokines upon exposure to the macrocyclic lactone is presented in FIG. 12A. The inhibition of anti-inflammatory cytokine IL-10 upon exposure to macrocyclic lactone Compound AR and Sirolimus are presented in FIG. 12B.

[2] = system: human smooth muscle cells; experiment: in vitro human smooth muscle cell culture testing, incorporated thymidine (proliferation); settings: for % Proliferation After One Hr Exposure: 1 hr exposure; for % Proliferation After Three Hr Exposure: 3 hr exposure; for % Proliferation After Eight Hr Exposure: 8 hr exposure; for IC50: Homo sapiens
Description: The amounts of incorporated thymidine for samples of Compound AR of varying concentrations (0.005, 0.01, 0.05, 0.1, 0.5, and 1 μM) and of rapamycin of varying concentrations (0.0005, 0.001, 0.01, and 0.1 μM) were measured after exposure for different times of 1, 3 and 8 hours. The IC50 for Compound AR and rapamycin were approximately 0.05 and 0.01 μM, respectively, after smooth muscle cells were exposed to Compound AR and rapamycin for the shorter periods of 1 and 3 hours (as shown in Table 1 and FIG. 8). The IC50 of Compound AR and rapamycin was approximately 0.005 and 0.001 μM, respectively, after smooth muscle cells were exposure to Compound AR and rapamycin for 8 hours. The IC50 of Compound AR was approximately five times higher than that of rapamycin.
The amounts of incorporated thymidine for samples of 17, 18-29, 30-bis-epoxide macrocyclic lactone of varying concentrations (0.005, 0.01, 0.05, 0.1, 0.5, and 1 μM) and of Compound AR of varying concentrations (0.0005, 0.001, 0.01, and 0.1 μM) were measured after exposure for 8 hours. The IC50 of 17, 18-29, 30-bis-epoxide macrocyclic lactone and Compound AR was approximately 0.1 and 0.005 μM, respectively, after smooth muscle cells were exposed to 17, 18-29, 30-bis-epoxide macrocyclic lactone and Compound AR for 8 hours (FIG. 13). The IC50 of 17, 18-29, 30-bis-epoxide macrocyclic lactone was approximately 20 times higher than that of Compound AR.

[3] = system: MCP-1 released by activated macrophages; experiment: cytokine inhibition in LPS-activated macrophages, ELISA: MCP-1; settings: 10 nM
Description: as §1

[4] = system: MMP-9 released by activated macrophages; experiment: cytokine inhibition in LPS-activated macrophages, ELISA: MMP-9; settings: 10 nM
Description: as §1

[5] = system: IL-6 released by activated macrophages; experiment: cytokine inhibition in LPS-activated macrophages, ELISA: IL-6; settings: 10 nM
Description: as §1

## CO[C@@H]1C[C@H](C[C@@H](C)[C@@H]2CC(=O)[C@H](C)/C=C(\C)[C@@H](O)[C@@H](OC)C(=O)[C@H](C)C[C@H](C)/C=C/C=C/C=C(\C)C(O)C[C@@H]3CC[C@@H](C)C(O)(O3)C(=O)C(=O)N3CCCC[C@H]3C(=O)O2)CC[C@H]1O (stereo partly drawn) [Compound AR, 16-O-Demethyl Macrocyclic Lactone]
[1]
  production of anti-inflammatory cytokine IL-10: inhibit the production
[2]; 0.005 micromolar
  % Proliferation After One Hr Exposure: 84%
  % Proliferation After Three Hr Exposure: 69%
  % Proliferation After Eight Hr Exposure: 52%
[2]; 0.01 micromolar
  % Proliferation After One Hr Exposure: 66%
  % Proliferation After Three Hr Exposure: 56%
  % Proliferation After Eight Hr Exposure: 38%
[2]; 0.05 micromolar
  % Proliferation After One Hr Exposure: 54%
  % Proliferation After Three Hr Exposure: 50%
  % Proliferation After Eight Hr Exposure: 40%
[2]; 0.1 micromolar
  % Proliferation After One Hr Exposure: 55%
  % Proliferation After Three Hr Exposure: 52%
  % Proliferation After Eight Hr Exposure: 36%
[2]; 0.5 micromolar
  % Proliferation After One Hr Exposure: 57%
  % Proliferation After Three Hr Exposure: 48%
  % Proliferation After Eight Hr Exposure: 35%
[2]; smooth muscle cells exposed for 8 hours
  IC50: ~5 nM
[2]; smooth muscle cells exposed for the shorter periods of 1 and 3 hours
  IC50: ~50 nM
[3]
  production of MCP-1: significantly reduced the production
[4]
  production of MMP-9: significantly reduced the production
[5]
  inhibition of release of IL-6: did not show and significant inhibition
